The record followed here is patent US9375419B1 (priority 2014, dated 2016).

Data set [1] relates to human Norovirus replicon (GT1, HG23 cell line). The data set can be described thus: Secondary anti-Norovirus assay, quantitative polymerase chain reaction (replicon). The following applies: for Sl50 - CC50/EC50 / Sl90 - CC50/EC90: quantitative PCR (replicon), HG23 cells. Background: In antiviral work, replicon cells carry a viral genome segment that copies itself.
For data set [2] the test system is unchanged. Kind of data set: Primary anti-Norovirus assay, RNA hybridization (replicon). The following applies: for Sl50 - CC50/EC50 / Sl90 - CC50/EC90: RNA hybridization (replicon), HG23 cells.
Data set [3] has as its system Adenorovirusirus-5. Type of data set: cell-based.
The test system of data set [4] is tacaribe virus. Type of data set: cell-based.
A short description of data set [5]: Neutral red (toxicity), secondary assay. As to conditions: human.
The subject of data set [6] is Venezuelan equine encephalalitis virus. It is filed as cell-based.
For data set [7], the system named is Herpes Simpex Virus 2. Type of data set: cell-based.
The test system of data set [8] is Hepatitis C virus. It is filed as cell-based.
Data set [9] deals with Yellow fever virus. Type of data set: cell-based.
Data set [10] is described as follows: Cytotoxicity by neutral red dye uptake, primary assay. The following applies: human.
Data set [11] has as its system Hepatitis B virus. Type of data set: cell-based.
The test system of data set [12] is polio virus. It is filed as cell-based.
For data set [13], the system named is Vaccina virus. Type of data set: cell-based.
The subject of data set [14] is Human cytomegalovirus. Type of data set: cell-based.
Data set [15] relates to Rift valley fever virus. It is filed as cell-based.
Data set [16] relates to Herpes Simpex Virus 1. Type of data set: cell-based.

Take `C[C@@]1(O)[C@H](O)[C@@H](CO)O[C@H]1n1ccc(N)nc1=O` [2′C-methyl cytidine, reference compound]: the “Sl50 - CC50/EC50” value in data set [1] was >50; in [2] it was >48. Moreover, the “Sl90 - CC50/EC90” value in data set [1] was >17; in data set [2], >16.

Broadly, the CC50 is the concentration giving 50% cytotoxicity. Read a low CC50 as harm at low concentration. As for `COc1c(C)cnc(Cn2cnc3c(Cl)cc(N)cc32)c1C` [Compound 1, 4-Chloro-1-((4-methoxy-3,5-dimethylpyridin-2-yl)methyl)-1H-benzo[d]imidazo-6-amine], the antiviral activity result in data set [3], in data set [4], in data set [6], in [7], in data set [8] and in [9] was “did not have activity” in each case. In addition, the antiviral activity entry in data set [11], in [12], in [13], in data set [14], in [15] and in data set [16] was “did not have activity” each time. For the same compound, the EC50 amounted to 1.4 µM in [1] (Norovirus, GT1, HG23, in Homo sapiens, read-out: EC50 - compound concentration that reduces viral replication by 50%) and 0.617 µM in data set [2] (Norovirus, GT1, HG23, in Homo sapiens, 72 h, read-out: EC50 - compound concentration that reduces viral replication by 50%). Also, the EC90 in data set [1] (Norovirus, GT1, HG23, in Homo sapiens, read-out: EC90 - compound concentration that reduces viral replication by 90%) is 8.5 µM; in data set [2] (Norovirus, GT1, HG23, in Homo sapiens, 72 h, read-out: EC90 - compound concentration that reduces viral replication by 90%), 7.5 µM. The results for the “Sl50 - CC50/EC50” value in data set [1] and in [2] were >36 and >162, respectively. For the same compound, the results for the “Sl90 - CC50/EC90” value in data set [1] and in [2] were >6 and >13, respectively. Further, the “activity against Norovirus, data confirmed in the secondary assay” value in [1] (secondary assay) was “confirmed”. The CC50 at 3 day in data set [5] was > 50 µM; in data set [10], > 100 µM. In addition, the “activity against Norovirus in the primary screen” value in data set [2] (primary screen) is given as “active”.
